Data reported in patent US8445409B2, “Use of 5-benzyloxymethyl-1,2-isoxazoline derivatives as a herbicide” (Moghu Research Center Ltd., priority 2007, dated 2013).
“Also recorded” adds a separate entry of the source.

Legend:
Large crabgrass [1] = test: Herbicidal activity at different growth stages, fresh weight suppression; assay type: in vivo; settings: for Suppression ratio relative to the biomass of the untreated group: Large crabgrass 1 leaf / Suppression ratio relative to the biomass of the untreated group: Large crabgrass 2 leaf / Suppression ratio relative to the biomass of the untreated group: Large crabgrass 3 leaf / Suppression ratio relative to the biomass of the untreated group: Large crabgrass 4 leaf / Suppression ratio relative to the biomass of the untreated group: Large crabgrass PRE: fresh weight two weeks after treatment
Method: To a cup pot having a surface area of 100 cm^2 wherein mixed soils including blend bed soil (Boonong, Horticultural Bed Soil No. 3) and sandy loam soil were filled (mixing ratio, 1:1), seeds of large crabgrass and annual bluegrass were sown consecutively at an one week interval. The pots were moistened by sub-irrigation, and kept in a greenhouse maintained at 25˜30° C. (day) or 15˜25° C. (night). The said weeds were grown to various growth stages from pre-emergence to the four-leaf stage. Then, they were applied with the test substance of the present invention at dosage of 2, 1, 0.5, or 0.25 kg/ha. As a reference herbicide, Dithiopyr (32% EC, manufactured by Dongbu Hannong Chemical Company), was applied at 0.96, 0.48, or 0.24 kg/ha. Spray volume was adjusted to 2,000 L/ha. The method to spray of the test substance and prepare spray solutions were the same as described above. The reference herbicide was used after it was diluted with 0.2% (v/v) Tween 20 aqueous solution. The test was conducted in a randomized block design with three replicates. Two weeks after the treatment, plant parts remained above the pot soil surface were cut and the fresh weight was weighed. Results are given by a suppression ratio relative to the biomass that was obtained from the untreated group (see, Table 3).

Corn = test: Upland pot test, pre-/post-emergence spray, visual rating; assay type: in vivo, corn (ZEAMX); settings: for Visual measurement: Crops, Corn: 2 weeks after spray, 0-10 scale (10=completely killed)
Source text: (§1) To a rectangular plastic pot having a surface area of 300 cm^2, mixed soils including blend bed soil (Boonong, Horticultural Bed Soil No. 3) and sandy loam soil were filled (mixing ratio, 1:1). Seeds of the eight different types of weeds including gramineous weed such as barnyardgrass, large crabgrass, green foxtail, fall panicum, and broadleaf weed such as common cocklebur, velvetleaf, Indian joint-vetch, and morningglory were sown. To the other pot containing the same soil mixture, seeds of the five different types of crops including corn, soybean, cotton, wheat and rice were sown. Pots were kept in a greenhouse of which temperature was maintained at 25˜30° C. (day) or 15˜25° C. (night), and regularly watered.
(§2) After fourteen days and when the crops and the weeds reached their three-leaf stage, the other set of a crop pot and a weed pot were prepared by the same method as described above. Then, “test substance” was sprayed thereto. In this case, spray treatment to the plants after they have grown for two weeks corresponded to post-emergence treatment while spray treatment to the seeds right after the sowing corresponded to pre-emergence treatment. Spray was carried out by using a track sprayer (R&D Sprayer, USA) equipped with a Teejet 8002 nozzle (Spraying Systems Co., USA). Spray volume was adjusted to 300 L/ha. The spray solution was prepared by dissolving the “test substance” in acetone and adding the same volume of 0.2% (v/v) Tween 20 aqueous solution. Dosage of the test substance was 500, 250, 125, 62.5 or 31.3 g/ha. Two weeks after the spray of the test substance, efficacy and phytotoxic effect to the crops and the weeds were visually measured based on a 0 to 10 scale (0: no efficacy, 10: completely killed).

Large crabgrass [2] = test: as above; assay type: in vivo, large crabgrass (DIGSA); settings: pre-emergence application, 0.06~0.12 kg/ha
Wheat = test: as above; assay type: in vivo, wheat (TRIAZ); settings: for Visual measurement: Crops, Wheat: 2 weeks after spray, 0-10 scale (10=completely killed)
Source text: as §1, §2

Barnyardgrass = test: as above; assay type: in vivo, barnyardgrass (ECHCG); settings: 2 weeks after spray, 0-10 scale (10=completely killed)
Source text: as §1, §2

Soybean = test: as above; assay type: in vivo, soybean (GLYMX); settings: for Visual measurement: Crops, Soybean: 2 weeks after spray, 0-10 scale (10=completely killed)
Source text: as §1, §2

Rice = test: as above; assay type: in vivo, rice (ORYSA); settings: for Visual measurement: Crops, Rice: 2 weeks after spray, 0-10 scale (10=completely killed)
Source text: as §1, §2

[3] = system: gramineous weeds such as barnyardgrass, green foxtail, large crabgrass and fall panicum; test: Upland pot test, gramineous weeds as a group; assay type: in vivo
Source text: as §1, §2

[4] = post-emergence foliar spray at three leaf stage, 31.2 g/ha
[5] = post-emergence foliar spray at three leaf stage, 62.5 g/ha
[6] = post-emergence foliar spray at three leaf stage, 125 g/ha
[7] = post-emergence foliar spray at three leaf stage, 250 g/ha
[8] = post-emergence foliar spray at three leaf stage, 500 g/ha
[9] = pre-emergence soil treatment, 31.2 g/ha
[10] = pre-emergence soil treatment, 62.5 g/ha
[11] = pre-emergence soil treatment, 125 g/ha
[12] = pre-emergence soil treatment, 250 g/ha
[13] = pre-emergence soil treatment, 500 g/ha

## Cc1ccsc1C1=NOC(C)(COCc2c(F)cccc2F)C1 (centres unmarked) [test substance, 5-(2,6-difluorobenzyl)oxymethyl-5-methyl-3-(4-methylthiophen-5-yl)-1,2-isoxazoline]
Large crabgrass [1]; 1 kg/ha
  Suppression ratio relative to the biomass of the untreated group: Large crabgrass 1 leaf: 100%
  Suppression ratio relative to the biomass of the untreated group: Large crabgrass 2 leaf: 98%
  Suppression ratio relative to the biomass of the untreated group: Large crabgrass 3 leaf: 94%
  Suppression ratio relative to the biomass of the untreated group: Large crabgrass 4 leaf: 70%
  Suppression ratio relative to the biomass of the untreated group: Large crabgrass PRE: 100%
Large crabgrass [1]; 2 kg/ha
  Suppression ratio relative to the biomass of the untreated group: Large crabgrass 1 leaf: 100%
  Suppression ratio relative to the biomass of the untreated group: Large crabgrass 2 leaf: 98%
  Suppression ratio relative to the biomass of the untreated group: Large crabgrass 3 leaf: 97%
  Suppression ratio relative to the biomass of the untreated group: Large crabgrass 4 leaf: 76%
  Suppression ratio relative to the biomass of the untreated group: Large crabgrass PRE: 100%
Large crabgrass [1]; 3-leaf stage, 1 kg/ha or more
  Suppression of large crabgrass: ≥ 90%
Large crabgrass [1]; .12 kg/ha
  Suppression ratio relative to the biomass of the untreated group: Large crabgrass 2 leaf: 45%
  Suppression ratio relative to the biomass of the untreated group: Large crabgrass 4 leaf: 16%
Large crabgrass [1]; .25 kg/ha
  Suppression ratio relative to the biomass of the untreated group: Large crabgrass 1 leaf: 100%
  Suppression ratio relative to the biomass of the untreated group: Large crabgrass 2 leaf: 81%
  Suppression ratio relative to the biomass of the untreated group: Large crabgrass 3 leaf: 72%
  Suppression ratio relative to the biomass of the untreated group: Large crabgrass 4 leaf: 33%
  Suppression ratio relative to the biomass of the untreated group: Large crabgrass PRE: 100%
Large crabgrass [1]; .5 kg/ha
  Suppression ratio relative to the biomass of the untreated group: Large crabgrass 1 leaf: 100%
  Suppression ratio relative to the biomass of the untreated group: Large crabgrass 2 leaf: 93%
  Suppression ratio relative to the biomass of the untreated group: Large crabgrass 3 leaf: 86%
  Suppression ratio relative to the biomass of the untreated group: Large crabgrass 4 leaf: 65%
  Suppression ratio relative to the biomass of the untreated group: Large crabgrass PRE: 100%
Large crabgrass [1]; PRE to 2-leaf stage, 0.5 kg/ha or above
  Suppression of large crabgrass: ≥ 90%
Large crabgrass [1]; over four-leaf stage
  Control of large crabgrass (in words): suppressed but were not completely controlled
Corn; [4]
  Visual measurement: Crops, Corn: 0
Corn; [5]
  Visual measurement: Crops, Corn: 2
Corn; [6]
  Visual measurement: Crops, Corn: 2
Corn; [7]
  Visual measurement: Crops, Corn: 3
Corn; [8]
  Visual measurement: Crops, Corn: 8
Corn; post-emergence treatment
  Safety to corn (in words): not safe
Corn; [9]
  Visual measurement: Crops, Corn: 0
Corn; [10]
  Visual measurement: Crops, Corn: 0
Corn; [11]
  Visual measurement: Crops, Corn: 0
Corn; [12]
  Visual measurement: Crops, Corn: 0
Corn; [13]
  Visual measurement: Crops, Corn: 0
Large crabgrass [2]
  Control of large crabgrass (in words): almost completely
Wheat; [4]
  Visual measurement: Crops, Wheat: 0
Wheat; [5]
  Visual measurement: Crops, Wheat: 0
Wheat; [6]
  Visual measurement: Crops, Wheat: 0
Wheat; [7]
  Visual measurement: Crops, Wheat: 0
Wheat; [8]
  Visual measurement: Crops, Wheat: 0
Wheat; post-emergence treatment
  Safety to wheat (in words): safe
Wheat; [9]
  Visual measurement: Crops, Wheat: 0
Wheat; [10]
  Visual measurement: Crops, Wheat: 0
Wheat; [11]
  Visual measurement: Crops, Wheat: 0
Wheat; [12]
  Visual measurement: Crops, Wheat: 0
Wheat; [13]
  Visual measurement: Crops, Wheat: 0
Barnyardgrass; [4]
  Visual measurement: Gramineous weed, Barnyardgrass: 0
Barnyardgrass; [5]
  Visual measurement: Gramineous weed, Barnyardgrass: 2
Barnyardgrass; [6]
  Visual measurement: Gramineous weed, Barnyardgrass: 3
Barnyardgrass; [7]
  Visual measurement: Gramineous weed, Barnyardgrass: 7
Barnyardgrass; [8]
  Visual measurement: Gramineous weed, Barnyardgrass: 9
Barnyardgrass; [9]
  Visual measurement: Gramineous weed, Barnyardgrass: 2
Barnyardgrass; [10]
  Visual measurement: Gramineous weed, Barnyardgrass: 4
Barnyardgrass; [11]
  Visual measurement: Gramineous weed, Barnyardgrass: 10
Barnyardgrass; [12]
  Visual measurement: Gramineous weed, Barnyardgrass: 10
Barnyardgrass; [13]
  Visual measurement: Gramineous weed, Barnyardgrass: 10
Soybean; [4]
  Visual measurement: Crops, Soybean: 0
Soybean; [5]
  Visual measurement: Crops, Soybean: 0
Soybean; [6]
  Visual measurement: Crops, Soybean: 0
Soybean; [7]
  Visual measurement: Crops, Soybean: 2
Soybean; [8]
  Visual measurement: Crops, Soybean: 6
Soybean; post-emergence treatment
  Safety to soybean (in words): not safe
Soybean; [9]
  Visual measurement: Crops, Soybean: 0
Soybean; [10]
  Visual measurement: Crops, Soybean: 0
Soybean; [11]
  Visual measurement: Crops, Soybean: 0
Soybean; [12]
  Visual measurement: Crops, Soybean: 0
Soybean; [13]
  Visual measurement: Crops, Soybean: 0
Rice; [4]
  Visual measurement: Crops, Rice: 0
Rice; [5]
  Visual measurement: Crops, Rice: 0
Rice; [6]
  Visual measurement: Crops, Rice: 0
Rice; [7]
  Visual measurement: Crops, Rice: 0
Rice; [8]
  Visual measurement: Crops, Rice: 0
Rice; post-emergence treatment
  Safety to rice (in words): safe
Rice; [9]
  Visual measurement: Crops, Rice: 0
Rice; [10]
  Visual measurement: Crops, Rice: 0
Rice; [11]
  Visual measurement: Crops, Rice: 0
Rice; [12]
  Visual measurement: Crops, Rice: 0
Rice; [13]
  Visual measurement: Crops, Rice: 0
[3]; post-emergence treatment at three-leaf stage, FIG. 2
  Control of gramineous weeds (in words): well controlled
[3]; post-emergence treatment, 500 g/ha
  Control of gramineous weeds (in words): most of the gramineous weeds were controlled
[3]; pre-emergence treatment, 125 g/ha or more, FIG. 1
  Control of gramineous weeds (in words): remarkable effect of controlling all of the gramineous weeds; also recorded: effectively controlled
